Laboratory results reported in patent publication US8735414B2 (priority 2009, dated 2014).

Test system: bicistronic HCV replicon (replicon RNA, GenBank Accession No. AJ242654)
Experiment: HCV Replicon Assay
Type: cell-based
Details: Hepatitis C virus, 72 h, read-out: Replicon IC50

SMILES | IC50 [µM]
C[C@H](NS(=O)(=O)c1ccc(-c2c(C#N)c3cc(F)c(CCO)cc3n2-c2ncccn2)nc1)C(F)(F)F [compound 970, 6-[3-cyano-5-fluoro-6-(2-hydroxyethyl)-1-(pyrimidin-2-yl)-1H-indol-2-yl]-N-[(2S)-1,1,1-trifluoropropan-2-yl]pyridine-3-sulfonamide] | < 0.5
C[C@H](NS(=O)(=O)c1ccc(-c2c(C#N)c3ccc(Cl)cc3n2C2CCC2)nc1)C1CC1 [compound 154, 6-(6-chloro-3-cyano-1-cyclobutyl-1H-indol-2-yl)-N-[(1S)-1-cyclopropylethyl]pyridine-3-sulfonamide] | < 0.5
CCc1cc2c(cc1F)c(C#N)c(-c1ccc(S(=O)(=O)N[C@@H](C)C(F)(F)F)cn1)n2C1=NC=CCN1 [compound 941, 6-[3-cyano-1-(1,6-dihydropyrimidin-2-yl)-6-ethyl-5-fluoro-1H-indol-2-yl]-N-[(2S)-1,1,1-trifluoropropan-2-yl]pyridine-3-sulfonamide] | 0.5 to 2
N#Cc1c(-c2ccc(S(=O)(=O)NC(CF)CF)cn2)n(CC2CC2)c2ccc(Cl)cc12 [compound 73, 6-[5-chloro-3-cyano-1-(cyclopropylmethyl)-1H-indol-2-yl]-N-(1,3-difluoropropan-2-yl)pyridine-3-sulfonamide] | < 0.5
Cc1cc2c(cc1F)c(C(=O)O)c(-c1ccc(S(=O)(=O)NC(C)(C)C)cn1)n2C1CCC1 [compound 776, 2-[5-(tert-butylsulfamoyl)pyridin-2-yl]-1-cyclobutyl-5-fluoro-6-methyl-1H-indole-3-carboxylic acid] | < 0.5
C[C@H](NS(=O)(=O)c1cnc(-c2c(C#N)c3ccc(Cl)cc3n2CC2CC2)nc1)C(F)(F)F [compound 415, 2-[6-chloro-3-cyano-1-(cyclopropylmethyl)-1H-indol-2-yl]-N-[(2S)-1,1,1-trifluoropropan-2-yl]pyrimidine-5-sulfonamide] | < 0.5
NC(=O)c1c(-c2ccc(S(=O)(=O)NC(CF)CF)cn2)n(C2CCC2)c2cc(C3CC3)ccc12 [compound 582, 1-cyclobutyl-6-cyclopropyl-2-{5-[(1,3-difluoropropan-2-yl)sulfamoyl]pyridin-2-yl}-1H-indole-3-carboxamide] | < 0.5
N#Cc1c(-c2ccc(S(=O)(=O)NC(CF)CF)cn2)n(C2CCCCC2)c2ccc(Cl)cc12 [compound 79, 6-(5-chloro-3-cyano-1-cyclohexyl-1H-indol-2-yl)-N-(1,3-difluoropropan-2-yl)pyridine-3-sulfonamide] | < 0.5
Cc1cc2c(cc1F)c(C#N)c(-c1ccc(S(=O)(=O)N[C@@H](C)C(F)(F)F)cn1)n2-c1ncco1 [compound 1073, 6-[3-cyano-5-fluoro-6-methyl-1-(1,3-oxazol-2-yl)-1H-indol-2-yl]-N-[(2S)-1,1,1-trifluoropropan-2-yl]pyridine-3-sulfonamide] | < 0.5
CSc1ccc2c(C#N)c(-c3ccc(S(=O)(=O)NC(CF)CF)cn3)n(C3CCC3)c2c1 [compound 161, 6-[3-cyano-1-cyclobutyl-6-(methylsulfanyl)-1H-indol-2-yl]-N-(1,3-difluoropropan-2-yl)pyridine-3-sulfonamide] | < 0.5
C[C@H](N(C(F)F)S(=O)(=O)c1ccc(-c2c(C#N)c3cc(F)c(OC(F)F)cc3n2C2CCC2)nc1)C(F)(F)F [compound 712, 6-[3-cyano-1-cyclobutyl-6-(difluoromethoxy)-5-fluoro-1H-indol-2-yl]-N-(difluoromethyl)-N-[(2S)-1,1,1-trifluoropropan-2-yl]pyridine-3-sulfonamide] | 2 to 5
CC(C)(C)N(C(F)F)S(=O)(=O)c1ccc(-c2c(C#N)c3cc(F)c(OC(F)F)cc3n2C2CCC2)nc1 [compound 721, N-tert-butyl-6-[3-cyano-1-cyclobutyl-6-(difluoromethoxy)-5-fluoro-1H-indol-2-yl]-N-(difluoromethyl)pyridine-3-sulfonamide] | 0.5 to 2
N#Cc1c(-c2ccc(S(=O)(=O)NC(CF)CF)cn2)n(C2CCC2)c2cc(CF)ccc12 [compound 318, 6-[3-cyano-1-cyclobutyl-6-(fluoromethyl)-1H-indol-2-yl]-N-(1,3-difluoropropan-2-yl)pyridine-3-sulfonamide] | < 0.5
Cc1cc2c(cc1F)cc(-c1ccc(S(=O)(=O)N[C@@H](C)C(F)(F)F)cn1)n2-c1cscn1 [compound 957, 6-[5-fluoro-6-methyl-1-(1,3-thiazol-4-yl)-1H-indol-2-yl]-N-[(2S)-1,1,1-trifluoropropan-2-yl]pyridine-3-sulfonamide] | 0.5 to 2
N#Cc1c(-c2ccc(S(=O)(=O)NC(CF)CF)cn2)n(-c2ncccn2)c2ccc(F)cc12 [compound 608, 6-[3-cyano-5-fluoro-1-(pyrimidin-2-yl)-1H-indol-2-yl]-N-(1,3-difluoropropan-2-yl)pyridine-3-sulfonamide] | < 0.5
COC(=O)c1csc(-n2c(-c3ccc(S(=O)(=O)N[C@@H](C)C(F)(F)F)cn3)c(C#N)c3cc(F)c(C)cc32)n1 [compound 986, methyl 2-[3-cyano-5-fluoro-6-methyl-2-(5-{[(2S)-1,1,1-trifluoropropan-2-yl]sulfamoyl}pyridin-2-yl)-1H-indol-1-yl]-1,3-thiazole-4-carboxylate] | < 0.5

SMILES | IC50 [µM]
COc1ccc2c(C#N)c(-c3ccc(S(=O)(=O)NC4CC(F)(F)C4)cn3)n(C3CCCC3)c2c1 [compound 246, 6-(3-cyano-1-cyclopentyl-6-methoxy-1H-indol-2-yl)-N-(3,3-difluorocyclobutyl)pyridine-3-sulfonamide] | 0.5 to 2
C[C@H](C1CC1)n1c(-c2ccc(NS(=O)(=O)C(C)(C)C)nc2)c(C(=O)O)c2cc(F)c(OC(F)F)cc21 [compound 1084, 2-{6-[(tert-butylsulfonyl)amino]pyridin-3-yl}-1-[(1R)-1-cyclopropylethyl]-6-(difluoromethoxy)-5-fluoro-1H-indole-3-carboxylic acid] | < 0.5
CCc1cc2c(cc1F)c(C#N)c(-c1ccc(S(=O)(=O)N[C@@H](C)C(F)(F)F)cn1)n2-c1ccccc1F [compound 1075, 6-[3-cyano-6-ethyl-5-fluoro-1-(2-fluorophenyl)-1H-indol-2-yl]-N-[(2S)-1,1,1-trifluoropropan-2-yl]pyridine-3-sulfonamide] | < 0.5
N#Cc1c(-c2ncc(S(=O)(=O)NC(CF)CF)cn2)n(C2CCC2)c2cc(C3CC3)c(F)cc12 [compound 145, 2-(3-cyano-1-cyclobutyl-6-cyclopropyl-5-fluoro-1H-indol-2-yl)-N-(1,3-difluoropropan-2-yl)pyrimidine-5-sulfonamide] | < 0.5
CC(C)NS(=O)(=O)c1ccc(-c2c(C#N)c3ccc(OC(F)(F)F)cc3n2C2CCC2)cn1 [compound 26, 5-[3-cyano-1-cyclobutyl-6-(trifluoromethoxy)-1H-indol-2-yl]-N-(propan-2-yl)pyridine-2-sulfonamide] | 0.5 to 2
[2H]C([2H])(C)c1cc2c(cc1F)c(C#N)c(-c1ccc(S(=O)(=O)N[C@@H](C)C(F)(F)F)cn1)n2-c1ncccn1 [compound 1078, 6-{3-cyano-6-[(1,1-dideuterium)ethyl]-5-fluoro-1-(pyrimidin-2-yl)-1H-indol-2-yl}-N-[(2S)-1,1,1-trifluoropropan-2-yl]pyridine-3-sulfonamide] | < 0.5
N#Cc1c(-c2ccc(S(=O)(=O)NC(CF)CF)cn2)n(CC2CC2)c2cc(CC(F)F)ccc12 [compound 616, 6-[3-cyano-1-(cyclopropylmethyl)-6-(2,2-difluoroethyl)-1H-indol-2-yl]-N-(1,3-difluoropropan-2-yl)pyridine-3-sulfonamide] | < 0.5
C[C@H](NS(=O)(=O)c1ccc(-c2c(C#N)c3cc(F)ccc3n2C2CCC2)nc1)C(F)(F)F [compound 434, 6-(3-cyano-1-cyclobutyl-5-fluoro-1H-indol-2-yl)-N-[(2S)-1,1,1-trifluoropropan-2-yl]pyridine-3-sulfonamide] | < 0.5
Cc1cc2c(cc1F)cc(-c1ccc(S(=O)(=O)N[C@@H](C)C(F)(F)F)cn1)n2C1CCCC1 [compound 760, 6-(1-cyclopentyl-5-fluoro-6-methyl-1H-indol-2-yl)-N-[(2S)-1,1,1-trifluoropropan-2-yl]pyridine-3-sulfonamide] | < 0.5
C[C@@H](NS(=O)(=O)c1ccc(-c2c(C#N)c3cc(Cl)ccc3n2C2CCC2)nc1)C(F)(F)F [compound 316, 6-(5-chloro-3-cyano-1-cyclobutyl-1H-indol-2-yl)-N-[(2R)-1,1,1-trifluoropropan-2-yl]pyridine-3-sulfonamide] | < 0.5
CC(C)(C)NS(=O)(=O)c1ccc(-c2c(C#N)c3cc(F)c(OC(F)F)cc3n2C2CCC2)nc1 [compound 720, N-tert-butyl-6-[3-cyano-1-cyclobutyl-6-(difluoromethoxy)-5-fluoro-1H-indol-2-yl]pyridine-3-sulfonamide] | < 0.5
Cc1cc2c(cc1F)c(C#N)c(-c1ccc(S(=O)(=O)N[C@@H](C)C(F)(F)F)cn1)n2-c1ncccn1 [compound 634, 6-[3-cyano-5-fluoro-6-methyl-1-(pyrimidin-2-yl)-1H-indol-2-yl]-N-[(2S)-1,1,1-trifluoropropan-2-yl]pyridine-3-sulfonamide] | < 0.5
Cc1cc2c(cc1F)c(C#N)c(-c1ccc(S(=O)(=O)N[C@@H](C)C(F)(F)F)cn1)n2-c1ccc(F)cn1 [compound 742, 6-[3-cyano-5-fluoro-1-(5-fluoropyridin-2-yl)-6-methyl-1H-indol-2-yl]-N-[(2S)-1,1,1-trifluoropropan-2-yl]pyridine-3-sulfonamide] | < 0.5
Cc1cc2c(cc1F)cc(-c1ccc(S(=O)(=O)N[C@@H](C)C(F)(F)F)cn1)n2-c1nncs1 [compound 958, 6-[5-fluoro-6-methyl-1-(1,3,4-thiadiazol-2-yl)-1H-indol-2-yl]-N-[(2S)-1,1,1-trifluoropropan-2-yl]pyridine-3-sulfonamide] | 0.5 to 2
CC(C)NS(=O)(=O)c1ccc(-c2c(C#N)c3ccc(C4CC4)cc3n2C2CC2)nc1 [compound 109, 6-(3-cyano-1,6-dicyclopropyl-1H-indol-2-yl)-N-(propan-2-yl)pyridine-3-sulfonamide] | < 0.5
C[C@H](NS(=O)(=O)c1ccc(-c2c(C#N)c3ccc(CF)cc3n2C2CCC2)nc1)C1CC1 [compound 317, 6-[3-cyano-1-cyclobutyl-6-(fluoromethyl)-1H-indol-2-yl]-N-[(1S)-1-cyclopropylethyl]pyridine-3-sulfonamide] | < 0.5
